Source: ChEMBL document CHEMBL1142649, “Asymmetric synthesis of novel tetrahydroquinoline derivatives with a sugar building block and their bioactivities” (Bioorg Med Chem Lett, 2005)
Values after ≈ are worked out from the molar mass of the structure shown.

How the values were obtained:
[1] = Inhibitory concentration against human esophagus cancer cell line at 72 hours; type: functional, cell-based; conditions: cancer cell lines
HeLa = experiment: Inhibitory concentration against human cervical carcinoma cell line at 48 hours; type: functional, cell-based

Row | IC50 [1] [µg/mL] | IC50 (HeLa) [µg/mL] | Compound
1 | 135 (≈ 245 µM) | 150 (≈ 272 µM) | CC(=O)O[C@@H]1COC2C1OCC21Nc2ccc(C)cc2[C@]2(Nc3ccc(C)cc3)C3OC[C@@H](OC(C)=O)C3OC12 (some centres not stated)
2 | > 1000 | 648 (≈ 1300 µM) | COc1ccc(N[C@]23c4cc(OC)ccc4NC4(COC5[C@H](O)CO[C@@H]54)C2OC2C3OC[C@H]2O)cc1 (some centres not stated)
3 | > 1000 | > 1000 | O[C@@H]1COC2C1OCC21Nc2ccccc2[C@]2(Nc3ccccc3)C3OC[C@@H](O)C3OC12 (some centres not stated)
4 | 240 (≈ 514 µM) | > 1000 | Cc1ccc(N[C@]23c4cc(C)ccc4NC4(COC5C4OC[C@H]5O)C2OC2C3OC[C@H]2O)cc1 (some centres not stated)
5 | 78 (≈ 166 µM) | > 1000 | Oc1ccc(NC23c4cc(O)ccc4NC4(COC5C4OC[C@H]5O)C2OC2C3OC[C@H]2O)cc1 (some centres not stated)
6 | 95 (≈ 204 µM) | 276 (≈ 592 µM) | Cc1cccc(NC23c4ccc(C)cc4NC4(COC5C4OC[C@H]5O)C2O[C@H]2C3OC[C@H]2O)c1 (some centres not stated)
